Laboratory results taken from patent US20230348422A1, “ALBICIDIN DERIVATIVES, THEIR USE AND SYNTHESIS” (TECHNISCHE UNIVERSITÄT BERLIN, priority 2020, published 2023).
Converted amounts (≈) assume the structure as drawn. Like-named read-outs stand apart in the source and are kept apart here.

Assays:
Assay in all cases: Microdilution assay, MIC
Assay type in all cases: cell-based
E. coli BW25113 = details: Escherichia coli, read-out: MIC E. coli BW25113
M. phlei DSM 750 = details: Mycolicibacterium phlei, read-out: MIC M. phlei DSM 750
B. subtilis DSM 10 = details: Bacillus subtilis, read-out: MIC B. subtilis DSM 10
Description: (§1) The tests were performed using the micro dilution method.
(§2) The determination of MIC values was performed according to the ninth edition of the Approved Standard M07-A9 (CLSI. Methods for Dilution Antimicrobial Susceptibility Tests for Bacteria That Grow Aerobically; Approved Standard-Ninth Edition. CLSI document M07-A9. Wayne, PA: Clinical and Laboratory Standards Institute; 2012.)
(§3) The test was carried out for four different bacterial strains (E. coli DSM 1116 [gram negative], B. subtilis DSM 10 [gram positive], M. luteus DSM 1790 [gram positive], S. typhimurium TA100 [gram negative]). 20 μL of cryo stock of each strain were inoculated in 20 mL of LB media (Lysogeny broth: 10 g/L peptone, 5 g/L yeast extract, 5 g/L NaCl) followed by incubation over night at 37° C., 200 rpm. The test inoculum was adjusted by the 0.5 McFarland Standard (OD625 from 0.08 to 0.1). Within 15 min of preparation, the adjusted inoculum suspension was diluted in MHBII media (BBL TM Mueller-Hinton Broth II, Becton, Dickinson and Company, New Jersey/USA) so that each well contained approximately 5×10^5 CFU/mL in a final volume of 100 μL. 95 μL of the inoculum were applied per well and 5 μL of the (diluted) antibiotic substance were added.
(§4) Previously the dry antibiotic compounds were dissolved in DMSO (100%) with a concentration of 2560 μg/mL and the resulting stock solutions were further diluted in DMSO (100%). 5 μL of each antibiotic dilution were applied to the microdilution tray to reach final concentrations of 64 μg/mL to 0.008 μg/mL. One row of each well plate was left as a growth control without antibiotic substances and another row of the microdilution tray was used as sterility control (only MHB II-media). The antimicrobial effect of the solvent (DMSO) was tested by adding 5 μL DMSO to several wells without antibiotics. Purity check and cell titer control were performed according to International Standard M07-A9 on Mueller-Hinton II Agar (Mueller Hinton II Broth, 15 g/L agar-agar). Both microdilution trays and agar plates were incubated at 37° C. for 20 h and subsequently analyzed visually.
(§5) The potency of an antibiotic is determined by the minimum inhibitory concentration (MIC). Contrary to intuition, a particularly low value is equated with a high potency.

M. luteus DSM 1790 = details: Micrococcus luteus, read-out: MIC M. luteus DSM 1790
Description: as §1, §2, §3, §4, §5

E. coli DSM 1116 = details: Escherichia coli, read-out: MIC E. coli DSM 1116
Description: as §1, §2, §3, §4, §5

S. typhimurium TA 100 = details: Salmonella enterica, 20 h, read-out: MIC S. typhimurium TA 100
Description: as §1, §2, §3, §4, §5

[1] = BW25113, Gram-negative, MHBII media, 37° C., 20 h
[2] = DSM750, Gram-positive, MHBII media, 37° C., 20 h
[3] = DSM10, Gram-positive, MHBII media, 37° C., 20 h
[4] = DSM1790, Gram-positive, MHBII media, 37° C., 20 h
[5] = DSM1116, Gram-negative, MHBII media, 37° C., 20 h
[6] = Gram-negative, MHBII media, 37° C.

| Compound | MIC (E. coli BW25113; BW25113, 20 h) | MIC (M. phlei DSM 750; DSM750, 20 h) | MIC (B. subtilis DSM 10; DSM10, 20 h) | MIC (M. luteus DSM 1790; DSM1790, 20 h) | MIC (E. coli DSM 1116; DSM1116, 20 h) | MIC (S. typhimurium TA 100) | MIC (E. coli BW25113; [1]) | MIC (M. phlei DSM 750; [2]) | MIC (B. subtilis DSM 10; [3]) | MIC (M. luteus DSM 1790; [4]) | MIC (E. coli DSM 1116; [5]) | MIC (S. typhimurium TA 100; [6]) |
| --- | --- | --- | --- | --- | --- | --- | --- | --- | --- | --- | --- | --- |
| COc1c(NC(=O)c2ccc(NC(=O)c3ccc(NC(=O)[C@H](Cc4cnn[nH]4)NC(=O)c4ccc(C#Cc5ccc(C#N)cc5)cc4)cc3)c(OC)c2O)ccc(C(=O)O)c1O [Compound 1] | 0.031 µg/mL (≈ 0.0371 µM) | 1 µg/mL (≈ 1.2 µM) | 0.25 µg/mL (≈ 0.299 µM) | 0.25 µg/mL (≈ 0.299 µM) | ≤ 0.016 µg/mL | ≤ 0.016 µg/mL |  |  |  |  |  |  |
| COc1ccc(C#Cc2ccc(C(=O)N[C@@H](Cc3cnn[nH]3)C(=O)Nc3ccc(C(=O)Nc4ccc(C(=O)Nc5ccc(C(=O)O)c(O)c5OC)c(O)c4OC)cc3)cc2)cc1 [Compound 2a] |  |  |  |  |  |  | 0.063 µg/mL (≈ 0.075 µM) | 1 µg/mL (≈ 1.19 µM) | 0.25 µg/mL (≈ 0.298 µM) | 0.5 µg/mL (≈ 0.595 µM) | 0.063 µg/mL (≈ 0.075 µM) | ≤ 0.016 µg/mL |
| COc1c(NC(=O)c2ccc(NC(=O)c3ccc(NC(=O)[C@H](Cc4cnn[nH]4)NC(=O)c4ccc(/C=C/c5ccc(O)cc5)cc4)cc3)c(OC)c2O)ccc(C(=O)O)c1O [Compound 3] |  |  |  |  |  |  | 0.25 µg/mL (≈ 0.302 µM) | 4 µg/mL (≈ 4.83 µM) | 0.5 µg/mL (≈ 0.604 µM) | 1 µg/mL (≈ 1.21 µM) | 0.5 µg/mL (≈ 0.604 µM) | 0.125 µg/mL (≈ 0.151 µM) |
| COc1ccc(C#Cc2ccc(C(=O)N[C@@H](Cc3cnn[nH]3)C(=O)Nc3ccc(C(=O)Nc4ccc(C(=O)Nc5ccc(C(=O)O)c(O)c5OC)c(O)c4OC)cc3)cc2)cn1 [Compound 4] |  |  |  |  |  |  | 0.063 µg/mL (≈ 0.0749 µM) | 1 µg/mL (≈ 1.19 µM) | 0.25 µg/mL (≈ 0.297 µM) | 0.5 µg/mL (≈ 0.595 µM) | 0.063 µg/mL (≈ 0.0749 µM) | ≤ 0.016 µg/mL |
| COc1c(NC(=O)c2ccc(NC(=O)c3ccc(NC(=O)[C@H](Cc4cnn[nH]4)NC(=O)c4ccc(C#Cc5ccc(O)cc5)cc4)cc3)c(OC)c2O)ccc(C(=O)O)c1O [Compound 5] |  |  |  |  |  |  | 0.125 µg/mL (≈ 0.151 µM) | 1 µg/mL (≈ 1.21 µM) | 2 µg/mL (≈ 2.42 µM) | 2 µg/mL (≈ 2.42 µM) | 0.063 µg/mL (≈ 0.0763 µM) | 0.031 µg/mL (≈ 0.0375 µM) |
| COc1c(NC(=O)c2ccc(NC(=O)c3ccc(NC(=O)[C@H](Cc4cnn[nH]4)NC(=O)c4ccc(C#Cc5ccc(F)cc5)cc4)cc3)c(OC)c2O)ccc(C(=O)O)c1O [Compound 6] |  |  |  |  |  |  | 0.031 µg/mL (≈ 0.0374 µM) | 0.5 µg/mL (≈ 0.604 µM) | 0.25 µg/mL (≈ 0.302 µM) | 0.25 µg/mL (≈ 0.302 µM) | 0.031 µg/mL (≈ 0.0374 µM) | ≤ 0.016 µg/mL |
| COc1c(NC(=O)c2ccc(NC(=O)c3ccc(NC(=O)[C@H](Cc4cnn[nH]4)NC(=O)c4ccc(CCc5ccc(O)cc5)cc4)cc3)c(OC)c2O)ccc(C(=O)O)c1O [Compound 9] |  |  |  |  |  |  | 0.25 µg/mL (≈ 0.301 µM) | 4 µg/mL (≈ 4.82 µM) | 2 µg/mL (≈ 2.41 µM) | 2 µg/mL (≈ 2.41 µM) | 0.5 µg/mL (≈ 0.603 µM) | 0.125 µg/mL (≈ 0.151 µM) |
| C#Cc1ccc(C(=O)Nc2ccc(C(=O)N[C@@H](Cc3cnn[nH]3)C(=O)Nc3ccc(C(=O)Nc4ccc(C(=O)Nc5ccc(C(=O)O)c(O)c5OC)c(O)c4OC)cc3)cc2)cc1 [Compound 14] |  |  |  |  |  |  | 0.063 µg/mL (≈ 0.0739 µM) | 1 µg/mL (≈ 1.17 µM) | 0.5 µg/mL (≈ 0.586 µM) | 0.5 µg/mL (≈ 0.586 µM) | 0.063 µg/mL (≈ 0.0739 µM) | 0.063 µg/mL (≈ 0.0739 µM) |
| COc1c(NC(=O)c2ccc(NC(=O)c3ccc(NC(=O)[C@H](Cc4cnn[nH]4)NC(=O)c4ccc(NC(=O)c5ccc(-c6nnn[nH]6)cc5)cc4)cc3)c(OC)c2O)ccc(C(=O)O)c1O [Compound 15] |  |  |  |  |  |  | 0.25 µg/mL (≈ 0.279 µM) | 8 µg/mL (≈ 8.92 µM) | 2 µg/mL (≈ 2.23 µM) | 8 µg/mL (≈ 8.92 µM) | 0.25 µg/mL (≈ 0.279 µM) | 0.063 µg/mL (≈ 0.0702 µM) |
| COc1c(/C=C(\F)c2ccc(NC(=O)[C@H](Cc3cnn[nH]3)NC(=O)c3ccc(NC(=O)/C(C)=C/c4ccc(O)cc4)cc3)cc2)ccc(C(=O)Nc2ccc(C(=O)O)c(O)c2OC)c1O [Compound 16] | 0.063 µg/mL (≈ 0.0711 µM) | 0.25 µg/mL (≈ 0.282 µM) | 0.031 µg/mL (≈ 0.035 µM) | 0.063 µg/mL (≈ 0.0711 µM) | 0.063 µg/mL (≈ 0.0711 µM) | 0.031 µg/mL (≈ 0.035 µM) |  |  |  |  |  |  |
| COc1c(/C=C/c2ccc(NC(=O)[C@H](Cc3cnn[nH]3)NC(=O)c3ccc(NC(=O)/C(C)=C/c4ccc(O)cc4)cc3)cc2)ccc(C(=O)Nc2ccc(C(=O)O)c(O)c2OC)c1O [Compound 17] |  |  |  |  |  |  | 0.125 µg/mL (≈ 0.144 µM) | 0.5 µg/mL (≈ 0.576 µM) | 0.063 µg/mL (≈ 0.0726 µM) | 0.125 µg/mL (≈ 0.144 µM) | 0.125 µg/mL (≈ 0.144 µM) | 0.063 µg/mL (≈ 0.0726 µM) |
| COc1c(C#Cc2ccc(NC(=O)[C@H](Cc3cnn[nH]3)NC(=O)c3ccc(NC(=O)/C(C)=C/c4ccc(O)cc4)cc3)cc2)ccc(C(=O)Nc2ccc(C(=O)O)c(O)c2OC)c1O [Compound 18] |  |  |  |  |  |  | 0.063 µg/mL (≈ 0.0728 µM) | 0.5 µg/mL (≈ 0.577 µM) | 0.063 µg/mL (≈ 0.0728 µM) | 0.25 µg/mL (≈ 0.289 µM) | 0.063 µg/mL (≈ 0.0728 µM) | 0.016 µg/mL (≈ 0.0185 µM) |
| COc1c(NC(=O)c2ccc(NC(=O)c3ccc(NC(=O)[C@H](Cc4cnn[nH]4)NC(=O)c4ccc(NC(=N)c5ccc(O)cc5)cc4)cn3)c(OC)c2O)ccc(C(=O)O)c1O [Compound 32] |  |  |  |  |  |  | 0.25 µg/mL (≈ 0.296 µM) | 8 µg/mL (≈ 9.47 µM) | 2 µg/mL (≈ 2.37 µM) | 4 µg/mL (≈ 4.73 µM) | 0.5 µg/mL (≈ 0.592 µM) | 0.125 µg/mL (≈ 0.148 µM) |
| COc1c(NC(=O)c2ccc(NC(=O)c3ccc(NC(=O)[C@H](Cc4cnn[nH]4)NC(=O)c4ccc5[nH]c(-c6ccc(O)cc6)nc5c4)cn3)c(OC)c2O)ccc(C(=O)O)c1O [Compound 33] |  |  |  |  |  |  | ≥ 8 µg/mL | ≥ 8 µg/mL | ≥ 8 µg/mL | ≥ 8 µg/mL | ≥ 8 µg/mL | ≥ 8 µg/mL |
